From US20030157088A1, “Compositions containing enzymes stabilized with inhibitors having certain binding properties and methods for using such compositions in personal care” (The Proctor & Gamble Company, priority 2001, published 2003) come the findings set out here.

Where only a bound is given, the exact number is not on record here.

One series deals with skin. The settings on record: in vivo.
A further series has as its target subtilisin. Type of series: biochemical. The settings on record: approximate values; Ki=[E]*[I]/[EI]; read-out: inhibition constant (Ki). An excerpt:
Typically a safe and effective amount will range from 0.00005% to 5%, preferably from 0.005% to 2%, more preferably from 0.025% to 1%. Ki values reported herein are approximate values and may be measured, e.g. using the method set forth in “Kinetcs of Subtilisin and Thiolsubtilisin“, Philipp, M. and Bender, M. L., Molecular & Cellular Biochemistry, vol. 51, pages 5-32 (1983). Another suitable method is set forth in “Protease Stabilization by Carboxylic Acid Salts: Relative Efficencies and Mechanisms,” Crossin, Michael C., J.A.O.C.S. vol. 66, no. 7, pages 1010-1014 (July 1989). […] The inhibition constant (Ki) is defined as the concentration of inhibitor required to inhibit an enzyme's activity by 50%, and may be represented as Ki=[E]*[I]/[EI], wherein E is enzyme, I is inhibitor, and EI is enzyme-inhibitor complex.

For `CCCCCCCCCCO[C@@H]1O[C@H](CO)[C@@H](O)[C@H](O)[C@H]1O` [Decyl glucoside, decyl glucoside], the “irritation of the skin” value in the series on skin is “not increase irritation of the skin”.
For `OB(O)O` [boric acid], on subtilisin, the Ki was above 1000 µM.
Take `CCCCB(O)O` [butylboronic acid]: the Ki on subtilisin is 7200 µM.
On the same count and under the same terms, under `CC(=O)N[C@@H](CC(C)C)C(=O)N[C@@H](CC(C)C)C(=O)N[C@H](C=O)CCCNC(=N)N` [leupeptide] stands 230 µM; under `OB(O)c1ccccc1` [phenylboronic acid], 160 µM; under “Streptomyces subtilisin inhibitor [Streptomyces subtilisin inhibitor (SSI)]”, below 0.001 µM.

A word on the Ki: it is a measure of affinity in units of concentration, obtained from inhibition or displacement.
